Source: US6350907B1, “Matrix metalloprotease inhibitors” (Pfizer Inc, priority 1998, dated 2002)

How the values were obtained:
[1] = system: endothelial cell invasion of basement membrane; conditions: thereby inhibiting angiogenesis; cited from earlier work
MMP-3 = target: T1, MMP-3 (Homo sapiens, UniProt P08254); assay: Inhibition of MMP-3, cleavage of fluorogenic peptide; type: biochemical
T1 construct: Catalytic domain MMP-2, MMP-3 and MMP-9 were prepared at Pfizer Central Research; made in house
T1 sequence (P08254 100-272 limits assumed): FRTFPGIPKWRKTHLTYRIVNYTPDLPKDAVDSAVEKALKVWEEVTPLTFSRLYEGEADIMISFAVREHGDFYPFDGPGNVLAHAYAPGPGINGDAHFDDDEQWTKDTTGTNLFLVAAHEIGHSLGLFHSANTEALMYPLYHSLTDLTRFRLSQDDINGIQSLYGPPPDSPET
Method: (§1) The ability of compounds to inhibit the cleavage of fluorogenic peptides by MMPs 1, 2, 3, 9 12, 13 and 14 is described below.
(§2) Catalytic domain MMP-2, MMP-3 and MMP-9 were prepared at Pfizer Central Research. […] MMP-3 was activated by the addition of 2 mM APMA, followed by incubation for 3 hours at 37° C. The enzymes were then diluted in Tris-HCl assay buffer (100 mM Tris, 100 mM NaCl, 10 mM CaCl2 and 0.16% Brij 35, pH 7.5), to a concentration of 10 nM. The final concentration of enzyme used in the assays was 1 nM.
The final substrate concentration used in the assay was 5 μM.
(§3) (iii) Determination of Enzyme Inhibition
Test compounds were dissolved in dimethyl sulphoxide and diluted with test buffer solution (as above) so that no more than 1% dimethyl sulphoxide was present. Test compound and enzyme were added to each well of a 96 well plate and allowed to equilibrate for 15 minutes at 37° C. in an orbital shaker prior to the addition of substrate.

MMP-12 = target: T2, MMP-12 (Homo sapiens, UniProt P39900); assay: Inhibition of MMP-12 (Human Macrophage Elastase), cleavage of fluorogenic peptide; type: biochemical; conditions: x = 12; read-out: MMP-12 inhibitor IC50
T2 construct: Catalytic domain MMP-12 (200 μg/ml) was used
T2 sequence (P39900 106-263 limits assumed): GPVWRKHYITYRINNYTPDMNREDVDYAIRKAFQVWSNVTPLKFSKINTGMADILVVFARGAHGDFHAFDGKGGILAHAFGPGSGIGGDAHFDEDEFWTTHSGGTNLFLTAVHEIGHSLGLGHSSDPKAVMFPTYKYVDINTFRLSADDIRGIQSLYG
Method: as §1
Inhibition of MMP-12 (Human Macrophage Elastase)
Catalytic domain MMP-12 (200 μg/ml) was used. MMP-12 was diluted in Tris-HCl assay buffer (50 mM Tris, 200 mM NaCl, 5 mM CaCl2, 20 μM ZnSO4, 0.02% Brij 35) pH 7.4 to 240 ng/ml. The final concentration of enzyme used in the assay was 60 ng/ml.
The fluorogenic substrate used in this assay was DNP-Pro-Cha-Gly-Cys(Me)-His-Ala-Lys(NMA)-NH2. The final substrate concentration used in the assay was 10 μM.
as §3
Test compounds were dissolved in dimethyl sulphoxide and diluted with assay buffer so that no more than 1% dimethyl sulphoxide was present. Test compound and enzyme were added to each well of a 96 well plate and allowed to equilibrate for 15 minutes at room temperature in an orbital shaker prior to the addition of substrate. Plates were then incubated for 2 hours at room temperature prior to the determination of fluorescence (substrate cleavage) using a fluorimeter at an excitation wavelength of 360 nm and emission wavelength of 460 nm.

MMP-2 = target: T3, MMP-2 (Homo sapiens, UniProt P08253); assay: Inhibition of MMP-2, cleavage of fluorogenic peptide; type: biochemical; conditions: x = 2; read-out: MMP-2 inhibitor IC50
T3 construct: Catalytic domain MMP-2, MMP-3 and MMP-9 were prepared at Pfizer Central Research; made in house
T3 sequence (P08253 110-446 limits assumed): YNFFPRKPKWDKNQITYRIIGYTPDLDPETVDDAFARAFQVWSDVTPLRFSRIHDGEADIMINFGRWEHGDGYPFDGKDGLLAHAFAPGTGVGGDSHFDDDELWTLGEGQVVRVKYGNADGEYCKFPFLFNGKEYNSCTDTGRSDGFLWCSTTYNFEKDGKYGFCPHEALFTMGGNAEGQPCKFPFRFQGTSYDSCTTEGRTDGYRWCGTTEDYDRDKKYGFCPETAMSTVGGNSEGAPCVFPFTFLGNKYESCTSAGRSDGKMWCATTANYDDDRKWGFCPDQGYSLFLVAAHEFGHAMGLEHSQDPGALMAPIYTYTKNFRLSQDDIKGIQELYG
Method: as §1
(§4) The assays for MMPs 2, 3, 9, and 14 are based upon the original protocol described by Knight et al. (Fed.Euro.Biochem.Soc., 296 (3), 263-266; 1992) with the slight modifications given below.
as §2
(§5) The fluorogenic substrate used in this screen was Mca-Arg-Pro-Lys-Pro-Tyr-Ala-Nva-Trp-Met-Lys(Dnp)-NH2 (Bachem Ltd, Essex, UK) as originally described by Nagase et al (J.Biol.Chem., 269(33), 20952-20957, 1994). […] The final substrate concentration used in the assay was 5 μM. […]
(§6) Test compounds were dissolved in dimethyl sulphoxide and diluted with test buffer solution (as above) so that no more than 1% dimethyl sulphoxide was present. […] Plates were then incubated for 1 hour at 37° C. prior to determination of fluorescence using a fluorimeter (Fluostar; BMG LabTechnologies, Aylesbury, UK) at an excitation wavelength of 328 nm and emission wavelength of 393 nm.

MMP-9 = target: T4, MMP-9 (Homo sapiens, UniProt P14780); assay: Inhibition of MMP-9, cleavage of fluorogenic peptide; type: biochemical; conditions: x = 9; read-out: MMP-9 inhibitor IC50
T4 construct: Catalytic domain MMP-2, MMP-3 and MMP-9 were prepared at Pfizer Central Research; made in house
T4 sequence (P14780 107-444 limits assumed): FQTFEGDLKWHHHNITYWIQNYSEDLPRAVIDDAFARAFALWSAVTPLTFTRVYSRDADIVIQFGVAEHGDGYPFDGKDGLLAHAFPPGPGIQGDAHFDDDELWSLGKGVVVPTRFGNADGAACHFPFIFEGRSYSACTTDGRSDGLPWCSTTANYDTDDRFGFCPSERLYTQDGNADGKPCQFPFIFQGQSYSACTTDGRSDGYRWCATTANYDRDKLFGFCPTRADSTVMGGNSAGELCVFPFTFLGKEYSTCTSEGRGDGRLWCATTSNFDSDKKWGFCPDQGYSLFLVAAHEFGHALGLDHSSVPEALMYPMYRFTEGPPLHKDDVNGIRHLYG
Method: as §1, §4, §2, §5, §6

MMP-14 = target: T5, MMP-14 (Homo sapiens, UniProt P50281); assay: Inhibition of MMP-14, cleavage of fluorogenic peptide; type: biochemical; conditions: x = 14; read-out: MMP-14 inhibitor IC50
T5 construct: Catalytic domain MMP-14 was purchased from Prof Tschesche; purchased Prof Tschesche, Department of Biochemistry, Faculty of Chemistry, University of Bielefeld, Germany
Method: as §1, §4
Test compounds were dissolved in dimethyl sulphoxide and diluted with test buffer solution (as above) so that no more than 1% dimethyl sulphoxide was present. Test compound and enzyme were added to each well of a 96 well plate and allowed to equilibrate for 15 minutes at 37° C. in an orbital shaker prior to the addition of substrate. Plates were then incubated for 1 hour at 37° C. prior to determination of fluorescence using a fluorimeter (Fluostar; BMG LabTechnologies, Aylesbury, UK) at an excitation wavelength of 328 nm and emission wavelength of 393 nm.
Catalytic domain MMP-14 was purchased from Prof Tschesche, Department of Biochemistry, Faculty of Chemistry, University of Bielefeld, Germany. A 10 μM enzyme stock solution was activated for 20 minutes at 25° C. following the addition of 5 μg/ml of trypsin (Sigma, Dorset, UK). […]

MMP-13 = target: T6, MMP-13 (Homo sapiens, UniProt P45452); assay: Inhibition of MMP-13, cleavage of fluorogenic peptide; type: biochemical; conditions: x = 13; read-out: MMP-13 inhibitor IC50
T6 construct: purchased PanVera Corporation (Madison, Wis.)
Method: as §1
Human recombinant MMP-13 was prepared by PanVera Corporation (Madison, Wis.) and characterized at Pfizer (Groton, Conn.). A 1.9 mg/ml stock was activated with 2 mM APMA for 2 hours at 37° C. MMP-13 was then diluted in assay buffer (50 mM Tris, 200 mM NaCl, 5 mM CaCl2, 20 μM ZnCl2 and 0.02% Brij 35) at pH 7.5 to a concentration of 5.3 nM. The final concentration of enzyme used in the assay was 1.3 nM.
The fluorogenic substrate used in this screen was Dnp-Pro-Cha-Gly-Cys(Me)-His-Ala-Lys(NMA)-NH2. The final substrate concentration used in the assay was 10 μM.
as §3
Test compounds were dissolved in dimethyl sulphoxide and diluted with assay buffer so that no more than 1% dimethyl sulphoxide was present. Test compound and enzyme were added to each well of a 96 well plate. The addition of substrate to each well initiated the reaction. Fluorescence intensity was determined on a 96 well plate fluorometer (Cytofluor II; PerSeptive Biosystems, Inc, Framingham, Mass.) at an excitation wavelength of 360 nm and emission wavelength of 460 nm.

keratinocyte migration = conditions: in vitro; cited from earlier work

Question: For `CNC(=O)[C@H](Cc1ccccc1)NC(=O)[C@H](CC(C)C)[C@H](CSc1cccs1)C(=O)NO` [BB94, (2S,3R)-5-methyl-3-{[(1S)-1-(methylcarbamoyl)-2-phenylethyl]carbamoyl}-2-[(2-thienylthio)methyl]hexanohydroxamic acid], which “Inhibition of endothelial cell invasion of basement membrane” value [1] is on record?
Answer: The value was “inhibits endothelial cell invasion of basement membrane”.

Question: With `Cc1cc(CCC[C@H](CC(=O)O)C(=O)N[C@H](C(=O)N[C@H](C)c2ccccc2)C(C)(C)C)ccc1-c1ccccc1` [Example 1, (3R)-3-({[(1S)-2,2-dimethyl-1-({[(1R)-1-phenylethyl]amino}carbonyl)propyl]amino}carbonyl)-6-[(3-methyl-4-phenyl)phenyl]hexanoic acid] as the compound, how does the “3/2sel: Selectivity for MMP-3 over MMP-2” value (MMP-3) read?
Answer: The value was 107.

Question: What about the IC50 (MMP-3) of the same compound?
Answer: Its IC50 is 101 nM.

Question: What about the IC50 (MMP-12) of the same compound?
Answer: Its IC50 is 85 nM.

Question: What about the IC50 (MMP-2) of the same compound?
Answer: Its IC50 is 10800 nM.

Question: With `C[C@@H](NC(=O)[C@@H](NC(=O)[C@H](CCCc1ccc(-c2ccccc2)c(Cl)c1)CC(=O)NO)C(C)(C)C)c1ccccc1` [Example 2, (2R)-2-{3-[3-Chloro-(4-phenyl)phenyl]propyl}-N1-[(1S)-2,2-dimethyl-1-({[(1R)-1-phenylethyl]amino}carbonyl)propyl]-(N4-hydroxy)butanediamide.] as the compound, how does the IC50 (MMP-9) read?
Answer: The IC50 was 1910 nM.

Question: What about the IC50 (MMP-14) of the same compound?
Answer: The IC50 was 5650 nM.

Question: What about the IC50 (MMP-13) of the same compound?
Answer: Its IC50 is 130 nM.

Question: For `CNC(=O)[C@H](Cc1ccc(OC)cc1)NC(=O)[C@@H](CC(=O)NO)CC(C)C` [SC44463], which “Inhibition of keratinocyte migration on a collagen type I matrix” value (keratinocyte migration) is on record?
Answer: The value was “completely inhibited”.
